This note sets out measurements from BindingDB's records for doi:10.1016/j.ejmech.2018.11.076 (Shaoxing University, 2019).

By IC50 is commonly meant the concentration needed to halve the response being measured.

Test [1] concerns the target T1, Cyclin-C (Homo sapiens, UniProt P24863).
T1 sequence (P24863 whole entry): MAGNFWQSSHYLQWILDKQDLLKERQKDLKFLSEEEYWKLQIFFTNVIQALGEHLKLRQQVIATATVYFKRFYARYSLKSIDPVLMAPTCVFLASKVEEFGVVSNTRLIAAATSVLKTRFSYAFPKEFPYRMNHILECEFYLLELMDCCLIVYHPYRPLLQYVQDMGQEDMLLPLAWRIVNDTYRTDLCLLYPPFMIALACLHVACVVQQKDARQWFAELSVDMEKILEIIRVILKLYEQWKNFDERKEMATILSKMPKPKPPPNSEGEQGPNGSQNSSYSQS
Nature of the test: Displacement of Kinase tracer 236 from recombinant full-length human N-terminal GST-fused CDK8 (1 to 464 residues)/cyclin C (1 to 283 residues) expressed in baculovirus expression system after 60 mins by TR-FRET assay. (Time-resolved FRET reads energy transfer from a long-lived donor to a nearby acceptor.)

For test [2], the target named is T1, Cyclin-C. Kind of test: Inhibition of recombinant full-length human His-tagged CDK8/cyclinC expressed in baculovirus expression system by Lantha screen assay.

Consider `Cc1ncccc1Oc1sc(C(N)=O)c2c1-c1c(cnn1C)CC2`, for which the IC50 on Cyclin-C [1] stood at 1.6 nM.
Turning to `CC1CCc2nc(N)c(C#N)c(-c3cccnc3)c2C1` (configuration not stated) [2-azanyl-6-methyl-4-pyridin-3-yl-5,6,7,8-tetrahydroquinoline-3-carbonitrile], the IC50 at Cyclin-C [2] stood at 500 nM.
